The test has as its system large intestinal epithelium. Kind of test: Mitotic rate (Colcemid-arrested metaphases per 500 crypt cells) in the large intestinal epithelium after i.p. injection. Conditions: dose of 10⁻¹² mole per animal, at the doses and times tested. It counts as in vivo, hairless mice. On the procedure:
All in vivo experiments were performed with hairless mice at 0800-0900 AM. The fractions were suspended in distilled water, slightly acidified (pH=6) and injected i.p. at different doses dependent on the purity of the fraction. The controls received solvent only. The pattern of cell proliferation after injecting the peptide was examined by varying the time between treatment and sacrifice.
Two hours before sacrifice (except for the experiments testing tissue specificity in the kidney) all animals received Colcemid 0.15 mg per animal i.p. ³HTdR (tritiated thymidine) was injected 30 minutes before sacrifice (30 µCi per animal i.p.). […]
Mitotic rate: After routine dehydration and paraffin embedding, sections were cut at 5 µm and stained with haematoxylin. Colcemid-arrested mitoses per 500 crypt cells were determined in ten longitudinally cut crypts in ileum and colon. […] The number of accumulated metaphases in epidermis was determined by counting 25 vision fields of interfollicular epidermis (eyepiece 12.5, objective 40) and expressed as mitoses per vision field per 2h.

Residues, ends and D or L forms follow the SMILES beside them.

Consider one compound from patent EP0394283B1, “USE OF A TRIPEPTIDE FOR THE PREPARATION OF PHARMACEUTICAL COMPOSITIONS AND A PHARMACEUTICAL COMPOSITION AND METHOD” (Hafslund Nycomed AS, priority 1987, dated 1992).

Consider `O=C(O)CC[C@H](NC(=O)[C@@H]1CCC(=O)N1)C(=O)N[C@@H](CC(=O)O)C(=O)N[C@@H](CO)C(=O)NCC(=O)O` [pGlu-Glu-Asp-Ser-Gly(OH)] (HELM PEPTIDE1{[Glp].E.D.S.G}$$$$V2.0), for which the “cell proliferation in the large intestinal epithelium” value is recorded as “unchanged”.
